Test results from US20250332265A1, “PSMA TARGETED CONJUGATE COMPOUNDS AND USES THEREOF” (priority 2021, published 2025).
Several values for one entry are separate records, joined by “and”; a condition that tells them apart may be missing. Equal entries are not always repeated. Numbered stars: 1 amine (or outer) side, 2 acyl side, 3 side chain; on linkers, the order of the positions; unused ones are H or OH. Bridge positions count the residues as written; N and C are the ends. Square brackets hold non-standard residues; d marks the D form. Peptide text beside a SMILES is read from it. I, II: the chains in the order shown. * marks the point of attachment. ξ: configuration not given here. X4 = CN1/C(=C/C=C/C=C/C2=[N+](CCCCCC(=O)*)c3ccc4ccccc4c3C2(C)C)C(C)(C)c2c1ccc1ccccc21; Hexanoyl(6-succinimido-3yl) = O=C1CC([*:1])C(=O)N1CCCCCC(=O)[*:2]; X5 = CC[C@H](C)[C@@H]([C@H](CC(=O)[*:2])OC)N(C)[*:1]; Dolaproine = CO[C@@H]([C@@H]1CCCN1)[C@@H](C)C(=O)O; Dil = CC[C@H](C)[C@H](NC)[C@@H](CC(=O)O)OC; X2 = O=C1CC([*:2])C(=O)N1CCCCCC(=O)[*:1]; γGlu = O=C(O)[C@H](CCC(=O)[*:2])N[*:1]; PABC = O=C(OCc1ccc(N[*:1])cc1)[*:2]; ξγGlu = O=C(O)C(CCC(=O)[*:2])N[*:1]; X1 = C[C@@H](N*)[C@@H](O)c1ccccc1; Trx = NC[C@H]1CC[C@H](C(=O)O)CC1; X3 = O=C(C1CCC(CN[*:1])CC1)[*:2]; Cit = NC(=O)NCCC[C@H](N)C(=O)O; NMeV = CN[C@H](C(=O)O)C(C)C; ξE = NC(CCC(=O)O)C(=O)O; CO = O=C([*:1])[*:2]; ξK = NCCCCC(N)C(=O)O; Ahx = NCCCCCC(=O)O; ξC = NC(CS)C(=O)O

Tests used:
orthotopic PC3pip tumors = test: Orthotopic survival study; format: in vivo, mice
Experimental: Surgical orthotopic tumor implantation was performed as previously reported. Tumor growth/size was monitored using Siemens Acuson S2000 ultrasound scanner. When the tumors were at the appropriate size (5 mm as measured by ultrasound, approximately 2 weeks) animals were given PSMA-1-VcMMAE, PSMA-1-VcMMAE-Cy5.5, or PBS every four days with a total of 5 doses. Tumors were monitored every other day by ultrasound. Each group had five mice.

PC3pip and PC3flu tumors = test: In vivo NIR imaging studies, Example 1; parameters: species or system mice; conditions: 40 nmol/kg i.v., fluorescence imaging
Experimental: Under guidelines of the animal care and use committee at Case Western Reserve University (IACUC #150033) 6 to 8-week old male Balb/cathymic nude mice were implanted subcutaneously with 1×10^6 of PC3flu and PC3pip on the left and right dorsum respectively. Mice received 40 nmol/kg of PSMA-1-VcMMAE-Cy5.5 or PSMA-1-McMMAE-Cy5.5 in PBS via tail vein injection when tumors reached 10 mm in diameter. Fluorescence imaging was performed using the Maestro In Vivo Imaging system (Perkin-Elmer). Multispectral images were unmixed into their component spectra (PSMA probes, autofluorescence, and background) to quantitate the average fluorescence intensity associated with the tumors using regions of interest (ROIs) around the tumors.

[1] = test system: α-tubulin in PC3pip and PC3flu cells; test: Immunofluorescence analysis of alpha-tubulin; format: cell-based, human; conditions: 5 nM, 24 hours
Experimental: Cells on coverslips at about 70% confluency were incubated with 5 nM of MMAE, PSMA-1-VcMMAE-Cy5.5 or PSMA-1-McMMAE-Cy5.5 for 24 hours. Cells were washed and fixed with 4% paraformaldehyde for 10 minutes, permeabilized with 0.1% Triton™ X-100 for 10 minutes, and blocked with 1% BSA for 1 hour at room temperature. Alpha-tubulin (B5-1-2) Alexa Fluor 488 Mouse Monoclonal Antibody (Invitrogen) was then added at 2 μg/mL in 0.1% BSA and incubated for 3 hours at room temperature. Cells were counterstained with DAPI, mounted with Fluor-Mount aqueous mounting solution, and observed under Leica DM4000B fluorescence microscopy at 40×.

[2] = Stability of conjugates incubated with PBS, Example 1; format: physicochemical; conditions: without enzyme
Experimental: To investigate if PSMA-targeted drug conjugates were cleavable by cathepsin B, the two conjugates were incubated with or without the enzyme and chromatographed by HPLC. When the conjugates were incubated with PBS, both PSMA-1-VcMMAE-Cy5.5 and PSMA-1-McMMAE-Cy5.5 were stable (FIG. 1D).

[3] = test system: PSMA-positive PC3pip cells; test: In vitro cytotoxicity assay (CCK-8), PC3pip; format: cell-based, human; conditions: for effect of protease inhibitor E64 on cell killing: co-incubation with 50 μM E64
Experimental: (§1) Cells (1,000/well) were seeded in 96-well culture plates the day before treatment. Cells were incubated with various concentrations of drugs for 72 hours and cell viability evaluated by CCK-8 (Dojindo). The concentration required to reach 50% of cell proliferation was determined (IC50) by GraphPad Prism 3.0.

heterotopic C4-2 tumors = test: Antitumor activity in heterotopic C4-2 tumors; format: in vivo, mice
Source text: To show versatility of the antitumor activity of PSMA-1-VcMMAE-Cy5.5, we tested it in mice bearing heterotopic C4-2 tumors, which are androgen-independent prostate cancer cells endogenously expressing PSMA.

[4] = test system: PSMA receptor expressed on the PC3pip cells; test: In vitro cellular uptake studies, Example 1; format: cell-based, human; conditions: 50 nM, 4 hours
Experimental: PC3pip and PC3flu cells were seeded in p-Slide 8-Well Chamber Slide (ibidi GmbH) at 2,000 cells/well. When cells grew to 70% confluency, PSMA-1-VcMMAE-Cy5.5 or PSMA-1-McMMAE-Cy5.5 conjugations were added at 50 nM and incubated at 37° C. for 4 hours. Cells were washed with PBS and stained with DAPI and LysoOrange (Abcam) for 30 minutes at 37° and 5% CO2, after which they were washed again with PBS and filled with fresh medium. Selectivity was determined by including 20-fold excess of the PSMA-1 ligand. The uptake and localization of the drug conjugates were visualized under a Leica HyVolution SP8 confocal microscope at 40×.

[5] = test system: heterotopic PC3pip tumors; test: Heterotopic survival study; format: in vivo, mice; conditions: for tumor growth when given every 7 days: dosing every 7 days
Source text: Male athymic nude mice were implanted subcutaneously with 1×10^6 of PC3pip cells under the right dorsum of the mice. When tumor size reached approximately 100 mm^3 (tumor volume=Length×width^2/2), mice received drugs through tail vein injection. […] Animals were weighed and tumor size measured every other day for 90 days. Cures were defined as no tumor present at end of the 90-day study. When tumors became too large or animals were moribund they were euthanized. Five mice were used in each group.

[6] = test system: metastatic PC3pip model (GFP labeled PC3pip cells); test: Metastatic survival study; format: in vivo, mice
Experimental: Male athymic nude mice were injected into the left ventricle of the heart with 1×10^5 GFP labeled PC3pip cells to generate bone metastasis. One week later mice received 160 nmol/kg PSMA-1-VcMMAE-Cy5.5 or PBS every 4 days with a total of 5 doses and the progression of disease was monitored by GFP imaging. Five mice were used in each group.

[7] = Maximum tolerated dose (MTD); format: in vivo, mice
Source text: Mice were monitored daily for 14 days.

[8] = In vitro cytotoxicity assay (CCK-8), PC3pip; format: cell-based, human; conditions: 72 hours incubation
Experimental: as §1

[9] = test system: PSMA-negative PC3flu cells; test: In vitro cytotoxicity assay (CCK-8), PC3flu; format: cell-based, human; conditions: versus PSMA-1-VcMMAE-Cy5.5
Experimental: as §1

[10] = In vitro cytotoxicity assay (CCK-8), PC3flu; format: cell-based, human; conditions: 72 hours incubation, CCK-8; read-out: IC50 cytotoxicity, PC3flu cells
Experimental: as §1

CC[C@H](C)[C@@H]([C@H](CC(=O)N1CCC[C@H]1[C@H](OC)[C@@H](C)C(=O)N[C@H](C)[C@@H](O)c1ccccc1)OC)N(C)C(=O)[C@@H](NC(=O)[C@H](C(C)C)N(C)C(=O)OCc1ccc(NC(=O)[C@H](CCCNC(N)=O)NC(=O)[C@@H](NC(=O)CCCCCN2C(=O)CC(SCC(NC(=O)C(CCC(=O)O)NC(=O)C(CCC(=O)O)NC(=O)C(CCC(=O)O)NC(=O)CCCCCNC(=O)C3CCC(CNC(=O)CCC(NC(=O)NC(CCC(=O)O)C(=O)O)C(=O)O)CC3)C(=O)NCCCCCC(=O)NC(CCCCNC(=O)CCCCC[N+]3=C(/C=C/C=C/C=C4/N(C)c5ccc6ccccc6c5C4(C)C)C(C)(C)c4c3ccc3ccccc43)C(N)=O)C2=O)C(C)C)cc1)C(C)C (stereo partly shown) [PSMA-1-VcMMAE-Cy5.5] (I: {ξE-CO-ξγGlu}-[X3][Ahx][ξE][ξE][ξE][ξC][Ahx][ξK](X4)-NH2 / II: V[Cit][PABC][NMeV]V[X5][Dolaproine]-X1; linker I:6-II:N via Hexanoyl(6-succinimido-3yl))
cure at day 90 (orthotopic PC3pip tumors; every four days, 5 doses): 40% | time of peak uptake in PC3pip tumors (PC3pip and PC3flu tumors): 24 h | disruption of α-tubulin network [1]: selective disruption of tubulin in PC3pip cells | stability when incubated with PBS [2]: stable | IC50 ([3]; 72 hours incubation, CCK-8): 0.84 nM and 0.75 nM | effect of protease inhibitor E64 on cell killing [3]: reduced the potency | cure rate (heterotopic C4-2 tumors): 40% | cellular binding and uptake, competition with PSMA-1 ligand [4]: selective and specific for the PSMA receptor | cure rate (no tumors at end of 90-day study) ([5]; 160 nmol/kg i.v. every 4 days, 5 doses): 60% | antitumor activity (tumor growth), words ([5]; 160 nmol/kg i.v. every four days, 5 doses): effectively inhibited tumor growth | tumor growth when given every 7 days [5]: greatly inhibited tumor growth

CC[C@H](C)[C@@H]([C@@H](CC(=O)N1CCC[C@H]1[C@H](OC)[C@@H](C)C(=O)N[C@H](C)[C@@H](O)c1ccccc1)OC)N(C)C(=O)[C@@H](NC(=O)[C@H](C(C)C)N(C)C(=O)OCc1ccc(NC(=O)[C@H](CCCNC(N)=O)NC(=O)[C@@H](NC(=O)CCCCCN2C(=O)CC(SC[C@H](NC(=O)[C@H](CCC(=O)O)NC(=O)[C@H](CCC(=O)O)NC(=O)[C@H](CCC(=O)O)NC(=O)CCCCCNC(=O)[C@H]3CC[C@H](CNC(=O)CC[C@H](NC(=O)N[C@@H](CCC(=O)O)C(=O)O)C(=O)O)CC3)C(=O)NCCCCCC(=O)N[C@@H](CCCCN)C(N)=O)C2=O)C(C)C)cc1)C(C)C (stereo partly drawn) [PSMA-1-VcMMAE] (I: V[Cit][PABC][NMeV]V[Dil][Dolaproine]-X1 / II: {Glu-CO-γGlu-Trx-Ahx}-EEEC[Ahx]K-NH2; linker I:N-II:4 via X2)
tumor free mice (orthotopic PC3pip tumors; 3860 nmol/kg, five mice per group): 1 | effect on survival and body weight, words [6]: prolong animal survival time with no body weight loss | therapeutic index (TI) ([7]; MTD / lowest effective dose): 40 | MTD ([7]; mouse, in vivo, iv, single dose i.v., tumor-free athymic nude mice): 7.64 µmol/kg | MTD relative to MMAE ([7]; single dose i.v.): more than 10 fold | IC50 ([8]; CCK-8, read-out: IC50 cytotoxicity, PC3pip cells): 4.64 nM | selectivity ratio ([8]; read-out: selectivity, differential cytotoxicity between PC3pip and PC3flu cells): 48 | ratio of IC50's between PC3pip and PC3flu cells ([3]; 72 hours incubation): 48.2 | effect of protease inhibitor E64 on cell killing [3]: susceptible to E64 protease inhibition | increase of IC50 on removal of the Cy5.5 moiety, PC3pip cells ([3]; versus PSMA-1-VcMMAE-Cy5.5): 6.2 fold | inhibition of PC3pip versus PC3flu tumor growth ([5]; 955 nmol/kg): significantly more effective at inhibiting PSMA-positive PC3pip tumor growth than PSMA-negative PC3flu tumor growth | cure (tumor free at 90 days) ([5]; 3820 nmol/kg i.v. every 4 days, 5 doses): 60% | tumor growth when given every 7 days [5]: greatly inhibited tumor growth | body weight loss ([5]; even at the highest dose tested (3820 nmol/kg)): No body weight loss | dose at which tumor growth inhibition starts ([5]; mouse, in vivo): 191 nmol/kg | increase of IC50 on removal of the Cy5.5 moiety, PC3flu cells [9]: 11.1 fold | IC50 [10]: 222 nM
